Values quoted from earlier work, collected in patent publication US11839619B2, “Methods for treatment of pediatric systemic mastocytosis” (The Regents of the University of California, priority 2019, dated 2023).

Settings: in vivo

SMILES: CO[C@@H]1[C@H](N(C)C(=O)c2ccccc2)C[C@H]2O[C@]1(C)n1c3ccccc3c3c4c(c5c6ccccc6n2c5c31)C(=O)NC4 [midostaurin]
- common side effects: nausea, vomiting, diarrhea, and thrombocytopenia
